Measured values from paper PMC6426897, “Inhibition of NLRP3 inflammasome activation by cell-permeable stapled peptides” (Scientific Reports, 2019).
Where a SMILES comes first, the peptide text is derived from it. Bridges are numbered along the chain shown (N, C = ends). [ ]: non-standard residue; d: D form. R8 = C=CCCCCCC[C@@](C)(N)C(=O)O; S5 = C=CCCC[C@](C)(N)C(=O)O

Legend:
[1] = tested on: NLRP3 inflammasome; assay: IL-1β release from THP-1 cells stimulated with LPS and nigericin (ELISA); assay type: cell-based, human; conditions: THP-1, LPS 0.1 μg/ml 4 h, nigericin 10 μM 1 h, Fig. 8A
Experimental: We next examined whether the ASC peptides could inhibit IL-1β production, which is regulated by the inflammasome. We used THP-1 human monocytic cells to study inflammasome activation as they express high levels of NLRP3, ASC, and pro-casp-1. THP-1 cells were incubated with ms_ASC^PYD #1–6 or ms_NLRP3^PYD peptides at increasing concentrations for 4 hours and were then stimulated with LPS for 4 hours, followed by the NLRP3 activator nigericin for 1 hour. IL-1β levels were measured in the culture supernatant. […] The ms_ASC^PYD peptides reduced IL-1β production from THP-1 cells in response to LPS/nigericin stimulation to variable degrees (Fig. 6A). […] We decided to continue investigating in detail the inhibitory effects of ms_ASC^PYD #5 and #6 peptides, as their estimated binding energies matched well with the experimental data of suppression of ASC-dependent IL-1 release in a dose-dependent manner. Since ms_ASCPYD #6 is the shorter version of ms_ASCPYD #5, this selection also enabled us to verify the effect of varying peptide lengths.
Human monocytic THP-1 cells (1 × 10^7 cells) were plated in a 10-cm tissue culture dish and treated with PMA (200 nM) overnight to differentiate monocytic cells into macrophages. Cells were then washed and allowed to rest in fresh media for another day. For stimulation, differentiated THP-1 cells were trypsinized and seeded in 96-well plates (2 × 10^6/well). Peripheral blood mononuclear cells were isolated by Ficoll-Hypaque density gradient centrifugation from buffy coats obtained from anonymous donors provided by the National University Hospital Blood Bank, Singapore. Isolation of monocytes was performed using negative selection with the Monocyte Isolation Kit II (Miltenyi Biotech), following the manufacturer’s instructions. Monocytes were plated in tissue culture non-treated 96-well plates (2.5 × 10^5/well) in 250 µl RPMI 1640-Glutamax media supplemented with 3% human AB serum (Gemini Bio Products).
(§1) THP-1 cells and monocytes were incubated with NLRP3^PYD (12.5–25–50 μM), ASC^PYD #5 (12.5-25-50-100 μM) or ASC^PYD #6 (12.5-25-50-100 μM) for the indicated durations. Cells were then washed once with PBS and primed with E. coli LPS (0.1 μg/ml, Invivogen) for 4 h followed by stimulation with nigericin (10 μM) for an additional 1 h or ATP ([…]) for an additional 30 min. The cell culture supernatants were then collected and centrifuged at 500 × g to remove cells and cellular debris.
IL-1β levels were measured using antibodies from eBioscience (cat. #14-7018-81 and #13-7016-85), following the manufacturer’s instructions. IL-18 levels were measured using antibodies from MBL (D044-3 and D045-6) following the manufacturer’s instructions. The absorbance was measured at 450 nm with the reference wavelength at 570 nm, using an M200 Infinite plate reader (Tecan).

[2] = tested on: THP-1 cells; assay: Internalization of FAM-labeled peptides by flow cytometry; assay type: in vitro ADME, human; conditions: THP-1, 37 °C, 4, 8 and 24 hours; FACS; three independent experiments
Experimental: As NLRP3 and ASC are cytosolic proteins, we examined whether the designed peptides could be taken up by monocytic cells to exert their biological effects. To assess peptide internalization, ms_NLRP3^PYD, ms_ASC^PYD #5 and #6 peptides were labeled with the FAM fluorophore at the N-terminus. Internalization of the FAM-labeled peptides was measured as the mean fluorescence intensity (MFI) by fluorescence-assisted cell sorting (FACS). THP-1 cells were incubated with FAM-labeled ms_NLRP3^PYD (12.5, 25 and 50 μM), ms_ASC^PYD #5 and #6 peptides (50 and 100 μM) for 4, 8 and 24 hours. The internalization of the three FAM-labelled peptides was concentration dependent (Fig. 7A,B). […] We also examined the internalization of FAM-labeled peptides in THP-1 cells by confocal microscopy. THP-1 cells were incubated with FAM-ms_NLRP3^PYD (100 μM), FAM-ms_ASC^PYD #5 or FAM-ms_ASC^PYD #6 (100 μM) for 4, 8 and 18 hours. FAM-labeled peptides localized primarily in the cytosol, but not in the nucleus, of THP-1 cells (Fig. 7C).
THP-1 cells (0.5 × 10^6) were incubated with FAM-NLRP3^PYD (12.5-25-50 μM), FAM-ASC^PYD #5 or FAM-ASC^PYD #6 (50-100 μM) peptides in a 6 well-plate. After 4, 8 and 24 h incubation, THP-1 cells were washed twice with PBS and harvested. The analysis was performed on a BD FACSCANTO II (BD Biosciences), and the data were analyzed using FlowJo (Treestar).

[3] = tested on: NLRP3 inflammasome; assay: Western blot of processed IL-1β p17 and Casp-1 p20 in THP-1 supernatants and of pro-forms in lysates; assay type: cell-based, human; conditions: THP-1, LPS/nigericin, Fig. 8D
Experimental: as §1
Cell-free supernatants were mixed 1:4 to cold acetone and incubated at −20 °C for at least 1 h. The mixtures were then centrifuged at 15,000 rpm for 15 min at 4 °C. Supernatants were discarded and pellets re-suspended in 1X Laemmli buffer. Total cell lysates were prepared using RIPA buffer containing 150 mM NaCl, 0.5% sodium deoxycholate, 0.1% SDS, 50 mM Tris-HCl pH 8.0 and 1% Triton-X-100. Protein concentrations were determined by BCA assay (Thermo Scientific, cat. 23227) following the manufacturer’s instructions. Lysates were reconstituted in Laemmli buffer (20–50 μg), boiled and separated by SDS–PAGE, and transferred onto PVDF membranes. […]

Row | SMILES | Inhibition of IL-1β production ([1]; 50 μM peptide) | Inhibition of IL-1β production ([1]; 100 μM peptide) | Fluorescent signal (MFI) of internalized peptide over time [2] | Caspase-1 activation (caspase-1 p20 in supernatants) [3]
1 | CC[C@H](C)[C@@H]1NC(=O)[C@H](CCCCN)NC(=O)[C@H](C)NC(=O)[C@H](CC(C)C)NC(=O)[C@H](CCCCN)NC(=O)[C@](C)(NC(=O)[C@H](C)NC(=O)[C@H](CCCNC(=N)N)NC(=O)[C@H](C)NC(=O)[C@@H](NC(C)=O)[C@@H](C)O)CCCCCCC=CCCC[C@@](C)(C(=O)N[C@@H](CCC(=O)O)C(=O)N[C@@H](CO)C(=O)N[C@H](C(N)=O)C(C)C)NC(=O)[C@H](CCCCN)NC1=O [ms_ASC^PYD #5] (Ac-TARA[R8]KLAKIK[S5]ESV-NH2; staple 5-12) | > 60% | > 90% | the fluorescent intensity subsequently decreased over-time | reduced caspase-1 activation in a dose-dependent manner
2 | CC[C@H](C)[C@@H]1NC(=O)[C@H](CCCCN)NC(=O)[C@H](C)NC(=O)[C@H](CCCCN)NC(=O)[C@H](CCCCN)NC(=O)[C@](C)(NC(=O)[C@H](C)NC(=O)[C@H](CCCNC(=N)N)NC(C)=O)CCCCCCC=CCCC[C@@](C)(C(=O)N[C@@H](CCC(=O)O)C(=O)N[C@@H](CO)C(=O)N[C@H](C(N)=O)C(C)C)NC(=O)[C@H](CCCCN)NC1=O [ms_ASC^PYD #6] (Ac-RA[R8]KKAKIK[S5]ESV-NH2; staple 3-10) | > 60% | > 90% |  | reduced caspase-1 activation in a dose-dependent manner
